For assay [1], the system named is bfGnRHR-3. As to the kind of experiment: Ligand-receptor binding assay, I125-GnRH-2 competition, membranes of GH3 cells expressing bfGnRHR-3. Details: species or system bullfrog. Particulars: log of IC50 (negative values); competition with I125-GnRH-2, 4° C., 16 hours. As to the method: To determine the binding affinity between GnRH and GnRH receptors, GnRH-2 was radiolabeled with I^125. The GH3 cells expressing bfGnRHR-1, bfGnRHR-2, bfGnRHR-3, and rat GnRHR constructed in Example 2-3 above were cultured on 100-mm dishes. After 48 hours, the cells were homogenized to obtain cellular membranes, which were then dissolved in binding buffer (40 mM Tris, pH 7.4, 2 mM MgCl2). 20 μg of membrane proteins were reacted with I^125-GnRH-2 at 4° C. for 16 hours. […] After the reaction was completed, 1^125-GnRH-2 bound to the receptors was filtered using a Brandel harvester, and cpm was measured using a γ-counter.
The GH3 cells expressing bfGnRHR-3 obtained from Example 6-1 above were treated with l^125GnRH-2 and GnRH-2 agonists and antagonists at various concentrations to determine the binding affinity of GnRH-2 agonists and antagonists toward the receptors.

For assay [2], the system named is bfGnRHR-3. As to the kind of experiment: Inhibition of GnRH-2-induced IP production, GH3 cells expressing bfGnRHR-3. The class given is cell-based, bullfrog. As to the method: (§1) GH3 cell lines were obtained from the Cell Line Bank at the Cancer Research Center, Seoul National University College of Medicine, located in Seoul, Republic of Korea. The GH3 cell lines were infected with retroviruses comprising genes encoding bfGnRHR-1, bfGnRHR-2, and bfGnRHR-3 which are bullfrog GnRH receptors, and rat GnRHR, and cell lines expressing each of these receptors were obtained. The GH3 cells expressing bfGnRHR-1, bfGnRHR-2, bfGnRHR-3, and rat GnRHR were cultured on 12-well plates. After 24 hours, the cells were cultured again for 24 hours in a media containing no inositol, to which H^3-myoinositol was added. The resultant cells were washed with buffer A (140 mM NaCl, 20 mM HEPES, 4 mM KCl, 8 mM D-Glucose, 1 mM MgCl2, 1 mM CaCl2, 1 mg/ml BSA) and then cultured in buffer A containing 10 mM LiCl at 37°C. for 30 minutes. Thereafter, they were treated with GnRH having a suitable concentration, cultured at 37° C. for another 30 minutes, and then the media was eliminated. The cells were treated with 10 mM of ice-cold formic acid to terminate the reaction, and the cell extracts were mixed with Dowex anionic exchange resins. These resins were washed with distilled water, IP was extracted with 1 M ammonium formate/0.1 M formic acid, and cpm (count per minute) was determined.

For the next assay, the system named is bfGnRHR-2. As to the kind of experiment: Inhibition of GnRH-2-induced IP production, GH3 cells expressing bfGnRHR-2. The format is cell-based, bullfrog. The protocol: as §1
Assay [3] deals with T1, rat GnRHR (Rattus norvegicus, UniProt P30969).
T1 construct: expressed in transfected cells; host or cells: GH3 cells, retrovirus-mediated infection
T1 sequence (P30969 1-327): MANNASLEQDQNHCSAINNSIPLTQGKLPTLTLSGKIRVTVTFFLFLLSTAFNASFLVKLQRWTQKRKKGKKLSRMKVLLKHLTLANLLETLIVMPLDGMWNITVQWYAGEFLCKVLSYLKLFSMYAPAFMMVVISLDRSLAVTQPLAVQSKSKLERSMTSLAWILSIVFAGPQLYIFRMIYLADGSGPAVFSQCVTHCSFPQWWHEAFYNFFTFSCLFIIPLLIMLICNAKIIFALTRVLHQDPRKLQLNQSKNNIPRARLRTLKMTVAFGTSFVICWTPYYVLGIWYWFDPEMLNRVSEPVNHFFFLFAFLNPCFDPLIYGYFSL
As to the kind of experiment: Inhibition of GnRH-induced IP production, GH3 cells expressing rat GnRHR. The format is cell-based. The note with it: rat GnRH receptors. The protocol:
as §1

A further assay concerns Primate GnRH-2 receptor. As to the kind of experiment: Inhibition of GnRH-2-induced c-fos-luc luciferase activity, cells expressing Primate GnRH-2 receptor. The class given is cell-based, Primates. As to the method:
Complimentary DNA (cDNA) for a Primate GnRH-2 receptor was obtained from a CV-1 cell genome. […] Plasmids having Primate GnRH-2 receptors where transfected into CV-1 cells. To assay the activity of the receptor, c-fos-luc where a luciferase gene is fused with a c-fos promoter was co-transfected as a probe gene. After 48 hours from transfection, the cells were treated with GnRH-2 agonists and then the activity of luciferase was assayed (Seong et al., Endocrinology vol 144 2003, 454-466). In the same manner as in 2-3 above, Primate GnRH-2 receptors were co-transfected along with c-fos-luc reporter genes, and after 48 hours, GnRH-2 and GnRH-2 antagonists were treated thereinto at the same time and then the effect of GnRH-2 antagonists was observed. […] Log IC50 value by antagonists is an average value of experiments that were conducted independently three times. ND stands for “not detected” which means that there are no inhibitory functions.

The target in assay [4] is T1, rat GnRHR. As to the kind of experiment: Ligand-receptor binding assay, I125-GnRH-2 competition, membranes of GH3 cells expressing rat GnRHR. Particulars: log of IC50 (negative values); competition with I125-GnRH-2, 4° C., 16 hours; read-out: Binding affinity (log IC50 value) (converted). The protocol:
To determine the binding affinity between GnRH and GnRH receptors, GnRH-2 was radiolabeled with I^125. […] After 48 hours, the cells were homogenized to obtain cellular membranes, which were then dissolved in binding buffer (40 mM Tris, pH 7.4, 2 mM MgCl2). 20 μg of membrane proteins were reacted with I^125-GnRH-2 at 4° C. for 16 hours. […] After the reaction was completed, 1^125-GnRH-2 bound to the receptors was filtered using a Brandel harvester, and cpm was measured using a γ-counter.

Setting [5] is: log of IC50 (negative values), half-maximal inhibition of IP production induced by GnRH-2 (1 nM, 10 nM elsewhere in the source).
Where [6] appears, read: reduction of IP production induced by 1 nM GnRH-2.

Where a SMILES comes first, the peptide text is derived from it. [ ]: non-standard residue; d: D form. dPhe(4-Cl) = N[C@H](Cc1ccc(Cl)cc1)C(=O)O; d2Nal = N[C@H](Cc1ccc2ccccc2c1)C(=O)O; dCit = NC(=O)NCCC[C@@H](N)C(=O)O; d3Pal = N[C@H](Cc1cccnc1)C(=O)O

What is called IC50 is the concentration needed to halve the response being measured.

As for `CC(=O)N[C@H](Cc1ccc2ccccc2c1)C(=O)N[C@H](Cc1ccc(Cl)cc1)C(=O)N[C@H](Cc1cccnc1)C(=O)N[C@@H](CO)C(=O)N[C@@H](Cc1ccc(O)cc1)C(=O)N[C@H](CCCNC(N)=O)C(=O)N[C@@H](Cc1c[nH]c2ccccc12)C(=O)N[C@@H](Cc1ccc(O)cc1)C(=O)N1CCC[C@H]1C(=O)N[C@H](C)C(N)=O` [Trptorelix-1, Ac-D2Nal-(4Cl)D-Phe-D-3Pal-Ser-Tyr-D-Cit-Trp-Tyr-Pro-DAlaNH2] (Ac-[d2Nal][dPhe(4-Cl)][d3Pal]SY[dCit]WYP[dA]-NH2), the “Binding affinity (log IC50 value)” value with bfGnRHR-3 [1] is listed as −11.73 ± 0.19. Also, the “Log IC50” value in the assay on bfGnRHR-3 [2] (setting [5]) is −8.49 ± 0.11; with bfGnRHR-2 (setting [5]), −8.10 ± 0.08; with Primate GnRH-2 receptor (log of IC50 (negative values), reporter c-fos-luc, GnRH-2-induced luciferase, average of three experiments, ND = not detected, no inhibitory functions), −5.74 ± 0.10. For the same molecule, the results for the “fold more sensitive than Cetrorelix” value with bfGnRHR-3 [2] (setting [6]) and in the assay on bfGnRHR-2 (setting [6]) were “about 1000 fold” and 100 fold, respectively. The “IP production by antagonist alone” value in the assay with bfGnRHR-3 [2] (without GnRH-2) and with bfGnRHR-2 (without GnRH-2) was “production of IP was not observed” each time. Further, the “fold lower effect than Cetrorelix” value at rat GnRHR [3] is around 60 fold. Besides, in the assay with Primate GnRH-2 receptor (GnRH-2 and antagonist treated at the same time), the “effect on luciferase activity induced by GnRH-2” value is “reduced in a concentration-dependent manner”. Also, at rat GnRHR [4], the half-maximal inhibitory concentration (IC50) is 1.78 pM.
